Measurements reported in the supplement of paper PMC10307832.

Experiments:
Experiment in all cases: relative viability (nuclei count vs DMSO), 5 days (fraction); higher = more cells survive
CX-5461 + Trametinib = compound: Cc1cnc(CNC(=O)c2c(=O)c3ccc(N4CCCN(C)CC4)nc3n3c2sc2ccccc23)cn1 [CX-5461] + CC(=O)Nc1cccc(-n2c(=O)n(C3CC3)c(=O)c3c(Nc4ccc(I)cc4F)n(C)c(=O)c(C)c32)c1 [Trametinib] (partner 0.02 µM)
Outline: (§1)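 Lung cancer cell lines in 1536-well plates were dosed by pin tool the day after seeding, either with one drug alone or with a fixed anchor-drug dose plus five library-drug doses (not always all listed) in √10 steps. After 5 days, cells were fixed and their nuclei stained in one step (final 0.05% Triton X-100, 1% formaldehyde, 1 ug/ml Hoechst), then counted on 4× images. Relative viability is the nuclei count in treated wells divided by that in vehicle wells. Values are medians of duplicate plates.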

CX-5461 + Luminespib = compound: Cc1cnc(CNC(=O)c2c(=O)c3ccc(N4CCCN(C)CC4)nc3n3c2sc2ccccc23)cn1 [CX-5461] + CCNC(=O)c1noc(-c2cc(C(C)C)c(O)cc2O)c1-c1ccc(CN2CCOCC2)cc1 [Luminespib] (partner 0.01 µM)
Outline: as §1

IMD-0354 + Pictilisib = compound: O=C(Nc1cc(C(F)(F)F)cc(C(F)(F)F)c1)c1cc(Cl)ccc1O [IMD-0354] + CS(=O)(=O)N1CCN(Cc2cc3nc(-c4cccc5[nH]ncc45)nc(N4CCOCC4)c3s2)CC1 [Pictilisib] (partner 1 µM)
Outline: as §1

IMD-0354 + Olaparib = compound: O=C(Nc1cc(C(F)(F)F)cc(C(F)(F)F)c1)c1cc(Cl)ccc1O [IMD-0354] + O=C(c1cc(Cc2n[nH]c(=O)c3ccccc23)ccc1F)N1CCN(C(=O)C2CC2)CC1 [Olaparib] (partner 8 µM)
Outline: as §1

Cell Line | relative viability (CX-5461 + Trametinib; first compound 0.01 µM) | relative viability (CX-5461 + Trametinib; first compound 0.03162 µM) | relative viability (CX-5461 + Trametinib; first compound 0.1 µM) | relative viability (CX-5461 + Trametinib; first compound 0.3162 µM) | relative viability (CX-5461 + Trametinib; first compound 1 µM) | relative viability (CX-5461 + Luminespib; first compound 0.01 µM) | relative viability (CX-5461 + Luminespib; first compound 0.03162 µM) | relative viability (CX-5461 + Luminespib; first compound 0.1 µM) | relative viability (CX-5461 + Luminespib; first compound 0.3162 µM) | relative viability (CX-5461 + Luminespib; first compound 1 µM) | relative viability (IMD-0354 + Pictilisib; first compound 0.04 µM) | relative viability (IMD-0354 + Pictilisib; first compound 0.1265 µM) | relative viability (IMD-0354 + Pictilisib; first compound 0.4 µM) | relative viability (IMD-0354 + Pictilisib; first compound 1.265 µM) | relative viability (IMD-0354 + Pictilisib; first compound 4 µM) | relative viability (IMD-0354 + Olaparib; first compound 0.04 µM) | relative viability (IMD-0354 + Olaparib; first compound 0.1265 µM) | relative viability (IMD-0354 + Olaparib; first compound 0.4 µM) | relative viability (IMD-0354 + Olaparib; first compound 1.265 µM) | relative viability (IMD-0354 + Olaparib; first compound 4 µM)
NCI-H2347 | 0.273 | 0.279 | 0.292 | 0.272 | 0.223 | 0.563 | 0.413 | 0.753 | 0.327 | 0.341 | 0.77 | 0.532 | 0.679 | 0.624 | 0.392 | 0.606 | 0.64 | 0.49 | 0.377 | 0.265
NCI-H2405 | 0.652 | 0.594 | 0.724 | 0.575 | 0.649 | 0.664 | 0.665 | 0.862 | 0.743 | 0.515 | 0.536 | 0.521 | 0.34 | 0.306 | 0.172 | 0.905 | 0.866 | 0.491 | 0.258 | 0.258
NCI-H3122 | 0.21 | 0.213 | 0.205 | 0.248 | 0.186 | 0.0935 | 0.0696 | 0.096 | 0.0801 | 0.0781 | 0.737 | 0.554 | 0.527 | 0.174 | 0.173 | 0.461 | 0.633 | 0.417 | 0.509 | 0.137
PC-3 [JPC-3] | 0.822 |  | 0.719 | 0.749 | 0.644 | 0.726 | 0.708 | 0.62 | 0.635 | 0.721 | 0.779 | 0.701 | 0.588 | 0.376 | 0.229 | 1.25 | 1.16 | 0.839 | 0.374 | 0.38
PC-14 | 0.718 | 0.821 | 0.391 | 0.76 | 0.151 | 0.14 | 0.163 | 0.222 | 0.204 | 0.124 | 1.05 | 0.713 |  | 0.409 | 0.132 | 0.223 | 0.276 | 0.269 | 0.0804 | 0.126
RERF-LC-KJ | 0.853 | 0.908 | 0.694 | 0.89 | 0.644 | 1.28 | 1.24 | 1.19 | 1.27 | 0.687 | 0.518 | 0.595 | 0.542 | 0.233 | 0.226 | 1.08 | 0.969 | 0.415 | 0.169 | 0.229
SK-LU-1 | 0.503 | 0.439 | 0.49 | 0.506 | 0.345 | 0.22 | 0.185 | 0.204 |  | 0.166 | 0.681 | 0.583 | 0.379 | 0.33 | 0.233 | 0.481 | 0.395 | 0.325 | 0.265 | 0.205
SK-MES-1 | 0.641 | 0.595 | 0.562 | 0.533 | 0.44 | 0.801 | 0.975 | 0.695 | 0.735 | 0.304 | 0.353 | 0.363 | 0.335 | 0.261 | 0.226 | 0.894 | 0.643 | 0.312 | 0.19 | 0.226
SW 1573 | 0.496 | 0.513 | 0.126 | 0.566 | 0.16 | 0.295 | 0.163 | 0.164 | 0.187 | 0.0965 | 0.577 | 0.468 | 0.263 | 0.418 | 0.137 | 0.537 | 0.467 | 0.264 | 0.0858 | 0.0862
